Measurements taken from publication PMC9168620, “Genetic validation of Aspergillus fumigatus phosphoglucomutase as a viable therapeutic target in invasive aspergillosis” (The Journal of Biological Chemistry, 2022).
Several values for one entry are separate records, joined by “and”; a condition that tells them apart may be missing. Equal entries are not always repeated. Where two headings read alike, the source gives them in different places.

Tests used:
AfPGMC353∗ = molecular target: T1, AfPGMC353∗ (Aspergillus fumigatus, UniProt Q4WY53, C131S/C242S/C364S); assay: G6PDH coupled assay for PGM, AfPGMC353∗ variant (C353 the sole cysteine); assay type: biochemical; details: no preincubation; for IC50: IC50 AfPGMC353, AfPGMC353∗ (all other cysteines mutated to serine) 5 nM
T1 construct: Full length AfPGM; 6His-GST (N, cleaved yes); made in house; host or cells: E. coli BL21 (DE3) pLysS
Protocol: (§1) The reaction mixture contained MOPS–NaOH (pH 7.4; 50 mM), MgSO4 (1.5 mM), NADP^+ (1 mM), G6PDH (0.01 U) from L. mesenteroides, Glc-1P (500 μM), Glc-1,6-2P (50 μM), and enzyme (5 nM). The reaction was carried out at 25 °C for 6 min in a total volume of 100 μl. Formation of NADPH was detected in real-time (every 1.5 min), measuring fluorescence signal (excitation at 360 nm; emission at 460 nm). To measure the inhibitory activity, compounds with different concentrations (3% (v/v) DMSO) were added to the reaction system. IC50 values were calculated using the product (NADPH) concentration at 6 min with 500 μM Glc-1P.

HsPGM = molecular target: T2, HsPGM (Homo sapiens, UniProt P36871); assay: G6PDH coupled assay for PGM, HsPGM; assay type: biochemical
T2 construct: Full length HsPGM; 6His-GST (N, cleaved yes); made in house; host or cells: E. coli BL21 (DE3) pLysS (same protocol as AfPGM)
T2 sequence (P36871 1-562): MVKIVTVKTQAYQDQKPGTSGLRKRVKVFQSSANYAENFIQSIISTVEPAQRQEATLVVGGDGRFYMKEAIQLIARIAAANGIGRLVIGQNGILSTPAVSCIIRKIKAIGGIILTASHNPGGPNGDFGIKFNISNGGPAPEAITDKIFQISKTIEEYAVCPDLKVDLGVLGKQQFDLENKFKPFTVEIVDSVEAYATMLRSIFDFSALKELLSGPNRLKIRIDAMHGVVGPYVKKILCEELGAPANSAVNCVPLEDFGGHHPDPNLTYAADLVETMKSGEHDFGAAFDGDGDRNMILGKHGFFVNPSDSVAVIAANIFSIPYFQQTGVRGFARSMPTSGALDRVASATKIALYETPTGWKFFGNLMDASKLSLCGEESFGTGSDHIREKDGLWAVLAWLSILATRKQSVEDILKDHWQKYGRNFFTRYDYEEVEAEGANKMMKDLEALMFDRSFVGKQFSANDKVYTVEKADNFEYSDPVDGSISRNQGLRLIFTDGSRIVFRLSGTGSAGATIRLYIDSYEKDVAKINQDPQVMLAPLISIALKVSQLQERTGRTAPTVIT
Protocol: as §1
(§2) Figure S11: Representative enzyme activity assays for PGMs. Error bars represent standard deviation of three determinations. Panel A and B show the time course of PGMs and PGM mutants in which sugar recognition glutamates are mutated to glutamine. […] Values in parentheses indicate the time at which DTT (1 mM) was added.

AfPGM = molecular target: T3, AfPGM (Aspergillus fumigatus, UniProt Q4WY53); assay: biochemical; details: for IC50 / IC50 AfPGM: WT AfPGM 5 nM, no preincubation, 500 μM Glc-1P
T3 construct: Full length AfPGM; 6His-GST (N, cleaved yes); made in house; host or cells: E. coli BL21 (DE3) pLysS
Protocol: as §1, §2

[1] = HsPGM 5 nM, no preincubation, > values: highest concentration at which the compound can solubilize, read-out: IC50 HsPGM

T1 sequence (Q4WY53 whole entry C131S/C242S/C364S): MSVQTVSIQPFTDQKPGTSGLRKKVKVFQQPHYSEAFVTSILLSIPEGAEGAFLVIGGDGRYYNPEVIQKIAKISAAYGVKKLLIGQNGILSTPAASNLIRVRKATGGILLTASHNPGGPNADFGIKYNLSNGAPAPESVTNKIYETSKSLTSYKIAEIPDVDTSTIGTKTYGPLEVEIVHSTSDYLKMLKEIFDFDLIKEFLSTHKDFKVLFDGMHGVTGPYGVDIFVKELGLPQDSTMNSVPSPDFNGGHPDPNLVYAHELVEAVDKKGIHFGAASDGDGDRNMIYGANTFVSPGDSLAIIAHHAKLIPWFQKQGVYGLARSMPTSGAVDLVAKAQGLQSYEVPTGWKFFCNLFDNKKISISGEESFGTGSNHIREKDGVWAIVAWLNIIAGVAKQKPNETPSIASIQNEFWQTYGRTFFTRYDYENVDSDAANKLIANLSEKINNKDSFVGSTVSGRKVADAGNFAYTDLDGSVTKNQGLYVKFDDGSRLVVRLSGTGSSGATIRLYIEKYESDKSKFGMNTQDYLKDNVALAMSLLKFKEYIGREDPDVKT
T3 sequence (Q4WY53 whole entry): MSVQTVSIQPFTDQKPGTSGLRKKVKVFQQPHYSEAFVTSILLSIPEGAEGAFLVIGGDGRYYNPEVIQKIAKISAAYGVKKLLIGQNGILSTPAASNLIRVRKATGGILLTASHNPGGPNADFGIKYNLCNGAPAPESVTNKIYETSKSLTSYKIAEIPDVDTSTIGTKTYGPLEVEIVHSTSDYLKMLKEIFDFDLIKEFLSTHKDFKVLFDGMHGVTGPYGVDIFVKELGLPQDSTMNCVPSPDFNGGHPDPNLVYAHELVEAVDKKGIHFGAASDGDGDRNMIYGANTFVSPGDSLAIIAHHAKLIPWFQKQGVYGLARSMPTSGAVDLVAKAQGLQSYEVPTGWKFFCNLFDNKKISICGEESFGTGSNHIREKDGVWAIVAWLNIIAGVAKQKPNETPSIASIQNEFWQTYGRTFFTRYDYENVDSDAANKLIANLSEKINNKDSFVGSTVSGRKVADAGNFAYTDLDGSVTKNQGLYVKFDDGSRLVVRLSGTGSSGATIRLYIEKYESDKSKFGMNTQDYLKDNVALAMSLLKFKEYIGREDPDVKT

SMILES | IC50 (AfPGMC353∗) | IC50 (HsPGM; [1]) | IC50 (AfPGM) | IC50 AfPGM (AfPGM) | other results
O=C(c1ccc(-n2sccc2=O)cc1)N1CCOCC1 [ISFP18, 2-(4-(morpholine-4-carbonyl)phenyl)isothiazol-3(2H)-one] | 23 µM | > 100 µM | 19 µM |  | 
O=c1ccsn1-c1cccc(Cl)c1 [ISFP13, 2-(3-chlorophenyl)isothiazol-3(2H)-one] | 12.2 µM | 100 µM | 5.8 µM |  | 
O=C(OCc1ccccc1)c1ccc(-n2sccc2=O)cc1 [ISFP10, benzyl 4-(3-oxoisothiazol-2(3H)-yl)benzoate] | 4 µM and 3.6 µM | > 100 µM | 2 µM |  | IC50 (HsPGM; enzyme preincubated with compound for 15 min (Fig. S11E, F), read-out: IC50 HsPGM after preincubation): 6 µM; Shift in IC50 against AfPGM over preincubation (AfPGM; 15-min preincubation (Fig. S11C, D)): no shift
CC(C)(C)OC(=O)c1ccc(-n2sccc2=O)cc1 [ISFP8, tert-butyl 4-(3-oxoisothiazol-2(3H)-yl)benzoate] | 6.7 µM | > 100 µM | 3.1 µM |  | 
Cc1cc(=O)n(-c2cccc(Cl)c2)s1 [ISFP30, 2-(3-chlorophenyl)-5-methylisothiazol-3(2H)-one] |  |  | 5.2 µM |  | IC50 AfPGMC353 (AfPGMC353∗; AfPGMC353∗ (all other cysteines mutated to serine) 5 nM): no inhibition; IC50 HsPGM (HsPGM; HsPGM 5 nM, no preincubation, > values: highest concentration at which the compound can solubilize): no inhibition
O=c1ccsn1Cc1ccccc1 [ISFP26, 2-benzylisothiazol-3(2H)-one] |  |  |  | no inhibition | 
O=c1ccsn1-c1cccc2ccccc12 [ISFP17, 2-(naphthalen-1-yl)isothiazol-3(2H)-one] | 16 µM | > 100 µM | 3.3 µM |  | 
CC(=O)OCc1cccc(-n2sccc2=O)c1 [ISFP19, 3-(3-oxoisothiazol-2(3H)-yl)benzyl acetate] | 115 µM | > 400 µM | 36 µM |  | 
N#Cc1cccc(-n2sccc2=O)c1 [ISFP14, 3-(3-oxoisothiazol-2(3H)-yl)benzonitrile] | 9.5 µM | > 100 µM | 5.7 µM |  | 
CC(C)OC(=O)c1ccc(-n2sccc2=O)cc1 [ISFP11, isopropyl 4-(3-oxoisothiazol-2(3H)-yl)benzoate] | 6 µM | > 100 µM | 3.1 µM |  | 
CCOC(=O)Cn1sccc1=O [ISFP23, ethyl 2-(3-oxoisothiazol-2(3H)-yl)acetate] |  |  |  | no inhibition | 
O=c1ccsn1-c1cc(Cl)cc(Cl)c1F [ISFP5, 2-(3,5-dichloro-2-fluorophenyl)isothiazol-3(2H)-one] | 8 µM and 7.8 µM | 10 ± 1 µM | 1 µM and 0.8 µM |  | 
CCOCCn1sccc1=O [ISFP25, 2-(2-ethoxyethyl)isothiazol-3(2H)-one] |  |  |  | no inhibition | 
O=c1ccsn1-c1cccc(CO)c1 [ISFP21, 2-(3-(hydroxymethyl)phenyl)isothiazol-3(2H)-one] | 25 µM | > 400 µM | 23 µM |  | 
O=c1ccsn1CCc1ccccc1 [ISFP22, 2-phenethylisothiazol-3(2H)-one] |  |  |  | no inhibition | 
CCOC(=O)c1cc2cc(-n3sccc3=O)ccc2o1 [ISFP15, ethyl 5-(3-oxoisothiazol-2(3H)-yl)benzofuran-2-carboxylate] | 15 µM | > 100 µM | 2.3 µM |  | 
O=c1ccsn1-c1cccc([N+](=O)[O-])c1 [ISFP12, 2-(3-nitrophenyl)isothiazol-3(2H)-one] | 9.5 µM | > 100 µM | 5.7 µM |  | 
CCOC(=O)CCn1sccc1=O [ISFP24, ethyl 3-(3-oxoisothiazol-2(3H)-yl)propanoate] |  |  |  | no inhibition | 
O=c1ccsn1-c1c(F)cccc1F [ISFP20, 2-(2,6-difluorophenyl)isothiazol-3(2H)-one] | 14 µM | 86 µM | 19 µM |  | 
O=c1cc(-c2ccccc2)sn1-c1cccc(Cl)c1 [ISFP27, 2-(3-chlorophenyl)-5-phenylisothiazol-3(2H)-one] |  |  |  | no inhibition | 
O=c1ccsn1-c1ccccc1F [ISFP16, 2-(2-fluorophenyl)isothiazol-3(2H)-one] | 23 µM | > 400 µM | 21 µM |  | 
Cc1csn(-c2cccc(Cl)c2)c1=O [ISFP28, 2-(3-chlorophenyl)-4-methylisothiazol-3(2H)-one] |  |  |  | no inhibition | 
